The values that follow come from patent US20240246967A1, “AXL COMPOUNDS” (ARCUS BIOSCIENCES, INC., priority 2021, published 2024).

The structures appear in SMILES notation. Some results are limits rather than exact numbers.

Experiment [1] concerns the target T1, Axl (Homo sapiens, UniProt P30530).
T1 sequence (P30530 26-894): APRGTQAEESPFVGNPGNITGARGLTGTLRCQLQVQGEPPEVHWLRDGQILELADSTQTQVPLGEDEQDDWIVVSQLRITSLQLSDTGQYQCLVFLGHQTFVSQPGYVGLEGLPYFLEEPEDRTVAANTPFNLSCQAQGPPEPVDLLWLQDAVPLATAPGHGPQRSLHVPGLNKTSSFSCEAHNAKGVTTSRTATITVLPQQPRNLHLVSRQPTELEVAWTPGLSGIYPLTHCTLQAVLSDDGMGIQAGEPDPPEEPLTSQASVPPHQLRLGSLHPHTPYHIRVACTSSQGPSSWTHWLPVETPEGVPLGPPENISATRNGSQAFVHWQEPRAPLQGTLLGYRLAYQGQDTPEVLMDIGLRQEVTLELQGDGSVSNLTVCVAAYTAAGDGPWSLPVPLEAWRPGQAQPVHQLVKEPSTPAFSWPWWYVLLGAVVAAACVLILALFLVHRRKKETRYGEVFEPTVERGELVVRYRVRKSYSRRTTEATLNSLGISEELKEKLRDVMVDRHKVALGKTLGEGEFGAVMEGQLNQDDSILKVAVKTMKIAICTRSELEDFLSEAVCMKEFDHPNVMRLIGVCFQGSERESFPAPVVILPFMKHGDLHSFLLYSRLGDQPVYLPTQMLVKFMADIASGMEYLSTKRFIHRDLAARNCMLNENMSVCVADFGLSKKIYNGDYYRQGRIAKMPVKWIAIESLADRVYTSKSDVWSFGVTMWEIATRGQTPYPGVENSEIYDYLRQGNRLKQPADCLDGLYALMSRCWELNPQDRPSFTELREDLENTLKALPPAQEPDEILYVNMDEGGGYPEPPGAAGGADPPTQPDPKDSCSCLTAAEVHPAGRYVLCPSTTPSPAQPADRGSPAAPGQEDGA
Nature of the experiment: Axl NanoBRET intracellular kinase assay (intracellular binding, Cell Binding). Also on record: host or cells: HEK-293. Conditions: HEK-293 cells transfected with Axl-NanoLuc fusion vector; 0.35 μM K-5 NanoBRET tracer. The method, boiled down: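 BRET ratio (610 nm/450 nm) decrease from K-5 tracer displacement gave binding; IC50 by 4-parameter non-linear regression of percent activity. Live HEK-293 cells expressed transiently transfected Axl-NanoLuc. Compound 1 h, then 0.35 μM tracer 2 h, both 37 °C, 5% CO2.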
In general terms: Bioluminescence resonance energy transfer reports proximity on the nanometre scale.

In experiment [2] the target is T1, Axl. In words: HTRF KinEASE-TK biochemical potency assay, AXL. On the set-up: purchased Invitrogen. Conditions: 5 nM AXL, 700 μM ATP, 800 nM TK Substrate-biotin. The method, boiled down: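 Enzyme (final 5 nM AXL; 1 nM TYRO3 or MER) plus compound, 1 h RT → add biotinylated TK substrate (800 nM final) and ATP (700 μM final) → 2 h RT → stop into HTRF detection mix → read 665/620 nm. Activity normalised to DMSO and pre-stopped blanks.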

The term IC50 denotes the concentration needed to halve the response being measured. High values mean weaker potency, low ones greater potency. In the case of `C[C@@H]1CCCN1C1(C)CCc2ccc(-c3cnc4[nH]nc(-c5ccc(C(=O)NC6CC6)cc5)c4c3)cc2CC1` (stereo partly drawn) [Example 69, N-Cyclopropyl-4-(5-{7-methyl-7-[(2R)-2-methylpyrrolidin-1-yl]-6,7,8,9-tetrahydro-5H-benzo[7]annulen-2-yl}-1H-pyrazolo[3,4-b]pyridin-3-yl)benzamide], the concentration for half-maximal inhibition (IC50) on Axl [1] and against Axl [2] was below 100 nM each time.
On to `C[C@@H]1CCCN1C1(C)CCc2ccc(-c3cnc4[nH]nc(-c5ccc(C(N)=O)c(Cl)c5)c4c3)cc2CC1` (stereo partly drawn) [Example 68, 2-Chloro-4-(5-{7-methyl-7-[(2R)-2-methylpyrrolidin-1-yl]-6,7,8,9-tetrahydro-5H-benzo[7]annulen-2-yl}-1H-pyrazolo[3,4-b]pyridin-3-yl)benzamide], for which the IC50 on Axl [1] and at Axl [2] was below 100 nM in each case.
As for `COC1CCN(C(=O)c2ccc(-c3n[nH]c4ncc(-c5ccc6c(c5)CCC(C)(N5CCC[C@H]5C)CC6)cc34)cc2)CC1` (stereo partly drawn) [Example 89, (4-Methoxypiperidin-1-yl)(4-(5-(7-methyl-7-((R)-2-methylpyrrolidin-1-yl)-6,7,8,9-tetrahydro-5H-benzo[7]annulen-2-yl)-1H-pyrazolo[3,4-b]pyridin-3-yl)phenyl)methanone], the concentration for half-maximal inhibition (IC50) at Axl [1] and against Axl [2] was below 100 nM each time.
In the case of `NS(=O)(=O)c1ccc(-c2n[nH]c3ncc(-c4ccc5c(c4)CC[C@@H](N4CCCC4)CC5)cc23)cc1Cl` [Example 91, (S)-2-Chloro-4-(5-(7-(pyrrolidin-1-yl)-6,7,8,9-tetrahydro-5H-benzo[7]annulen-2-yl)-1H-pyrazolo[3,4-b]pyridin-3-yl)benzenesulfonamide], the IC50 at Axl [1] and on Axl [2] was below 100 nM each time.
As for `COC1CCN(C(=O)c2ccc(-c3n[nH]c4ncc(-c5ccc6c(c5)CCC(C)(N5CCC[C@H]5C)CC6)cc34)cc2Cl)CC1` (stereo partly drawn) [Example 67, 1-[2-Chloro-4-(5-{7-methyl-7-[(2R)-2-methylpyrrolidin-1-yl]-6,7,8,9-tetrahydro-5H-benzo[7]annulen-2-yl}-1H-pyrazolo[3,4-b]pyridin-3-yl)benzoyl]-4-methoxypiperidine], the IC50 at Axl [1] and against Axl [2] was below 100 nM throughout.
Regarding `CC1(N2CCC[C@@H]2CO)CCc2ccc(-c3cnc4[nH]nc(-c5ccc(S(=O)(=O)C6CC6)cc5)c4c3)cc2CC1` (stereo partly drawn) [Example 3, [(2R)-1-(2-{3-[4-(Cyclopropanesulfonyl)phenyl]-1H-pyrazolo[3,4-b]pyridin-5-yl}-7-methyl-6,7,8,9-tetrahydro-5H-benzo[7]annulen-7-yl)pyrrolidin-2-yl]methanol], the IC50 on Axl [1] and on Axl [2] was below 100 nM each time.
Take `Cc1cc2c(cc1-c1cnc3[nH]nc(-c4ccc(C(C)(C)O)c(Cl)c4)c3c1)CCC(N1CCC[C@H]1C)CC2` (stereo partly drawn) [Example 90, 2-[2-Chloro-4-(5-{3-methyl-7-[(2R)-2-methylpyrrolidin-1-yl]-6,7,8,9-tetrahydro-5H-benzo[7]annulen-2-yl}-1H-pyrazolo[3,4-b]pyridin-3-yl)phenyl]propan-2-ol]: the half-maximal inhibitory concentration (IC50) on Axl [1] was 100 to 1000 nM; on Axl [2], below 100 nM.
In the same order, the values of `C[C@@H]1CCCN1C1(C)CCc2ccc(-c3cnc4[nH]nc(-c5ccc(C(=O)NC6CCOCC6)cc5)c4c3)cc2CC1` (stereo partly drawn) [Example 88, 4-(5-(7-Methyl-7-((R)-2-methylpyrrolidin-1-yl)-6,7,8,9-tetrahydro-5H-benzo[7]annulen-2-yl)-1H-pyrazolo[3,4-b]pyridin-3-yl)-N-(tetrahydro-2H-pyran-4-yl)benzamide] are below 100 nM and below 100 nM.
Regarding `CC(C)NC(=O)c1ccc(-c2n[nH]c3ncc(-c4ccc5c(c4)CCC(C)(N4CCC[C@H]4C)CC5)cc23)cc1` (stereo partly drawn) [Example 70, 4-(5-{7-Methyl-7-[(2R)-2-methylpyrrolidin-1-yl]-6,7,8,9-tetrahydro-5H-benzo[7]annulen-2-yl}-1H-pyrazolo[3,4-b]pyridin-3-yl)-N-(propan-2-yl)benzamide], the 50% inhibitory concentration (IC50) on Axl [1] and on Axl [2] was below 100 nM each time.
`CCC1(N2CCC[C@@H]2CO)CCc2ccc(-c3cnc4[nH]nc(-c5ccc(C(N)=O)c(Cl)c5)c4c3)cc2CC1` (stereo partly drawn) [Example 74, 2-Chloro-4-(5-{7-ethyl-7-[(2R)-2-(hydroxymethyl)pyrrolidin-1-yl]-6,7,8,9-tetrahydro-5H-benzo[7]annulen-2-yl}-1H-pyrazolo[3,4-b]pyridin-3-yl)benzamide]: the concentration for half-maximal inhibition (IC50) at Axl [1] and at Axl [2] was below 100 nM in each case.
Regarding `COCCNC(=O)c1ccc(-c2n[nH]c3ncc(-c4ccc5c(c4)CCC(C)(N4CCC[C@H]4C)CC5)cc23)cc1` (stereo partly drawn) [Example 72, N-(2-Methoxyethyl)-4-(5-{7-methyl-7-[(2R)-2-methylpyrrolidin-1-yl]-6,7,8,9-tetrahydro-5H-benzo[7]annulen-2-yl}-1H-pyrazolo[3,4-b]pyridin-3-yl)benzamide], the 50% inhibitory concentration (IC50) at Axl [1] and against Axl [2] was below 100 nM in each case.
For the compound `NC(=O)c1ccc(-c2n[nH]c3ncc(-c4ccc5c(c4)CCC(N4CCCC4)CC5)cc23)cc1C(F)(F)F` (centres unmarked) [Example 80, 4-(5-(7-(Pyrrolidin-1-yl)-6,7,8,9-tetrahydro-5H-benzo[7]annulen-2-yl)-1H-pyrazolo[3,4-b]pyridin-3-yl)-2-(trifluoromethyl)benzamide], the IC50 at Axl [1] and on Axl [2] was below 100 nM each time.
Take `C[C@@H]1CCCN1C1CCc2ccc(-c3cnc4[nH]nc(-c5ccc(C6(O)COC6)c(Cl)c5)c4c3)cc2CC1` (stereo partly drawn) [Example 64, 3-[2-Chloro-4-(5-{7-[(2R)-2-methylpyrrolidin-1-yl]-6,7,8,9-tetrahydro-5H-benzo[7]annulen-2-yl}-1H-pyrazolo[3,4-b]pyridin-3-yl)phenyl]oxetan-3-ol]: the half-inhibitory concentration (IC50) on Axl [1] was above 1000 nM; against Axl [2], below 100 nM.
